In patent US20230043428A1, “COMPOSITIONS AND METHODS FOR USE OF CANNABINOIDS FOR NEUROPROTECTION” (INMED PHARMACEUTICALS INC., priority 2019, published 2023):
Values joined by “and” are separate entries in the source; they are usually repeats but may differ in a detail not shown here. Equal values may be shown once. “Also recorded” adds a separate entry of the source.

Tests used:
[1] = tested on: rat episcleral vein laser photocoagulation model of glaucoma (RGC function); test: pattern electroretinogram (pERG) in the rat episcleral vein laser photocoagulation model of glaucoma; type: in vivo; conditions: for pERG amplitudes vs baseline (statistical significance): two-way ANOVA, Tukey
Experimental: The pattern electroretinogram (pERG) amplitude a parameter that measures retinal ganglion cell (RGC) activity was evaluated on the eyes of anesthetized animals. During the pERG recording, the eyes were kept moist with a drop of 2.5% GonioVisc ophthalmic lubricant solution (Hub Pharmaceuticals), which also secured electrical contact between the corneas and ERG electrodes. The ERG electrodes were thin silver/silver-chloride wire rings. One eye was recorded while another eye was mechanically occluded. The occluded eye served as a reference in the ERG recording providing minimal physiological noise, while the ground electrode was placed on the tail. Only the signals from the right eye (OD) were recorded. The pERG stimulus was generated with a gamma-linearized monitor screen yielding vertical sinusoidal pattern of 0.10 cycles per degree of visual angle at viewing distance. The mean luminance of stimulation was 45 lux and contrast between dark and white was 99%. […] Two recordings were performed for each eye. For the pERG analysis, the pERG waveforms were superimposed, checked for consistency and averaged as final pERG response. Baseline pERG responses were recorded at day 0 four days prior to the lasering, and on days 7, 14 and day 21 post-lasering. Initially pERG baseline amplitudes were recorded on the eyes of all animals at baseline. The animals were then randomized into control and treatments groups based on their pERG response.
The following treatment arms were used in the study: • Group 1: Vehicle (0.5% DMSO-PBS) (IVT, day 0, day 7 and day 15) n=11 • Group 2: CBN low dose, 5 μM in 0.05% DMSO-PBS (IVT, day 0, day 7 and day 15) n=13 • Group 3: CBN high dose 50 μM in 0.5% DMSO-PBS (IVT, day 0, day 7 and day 15) n=11 • Group 4: Brimonidine (topical, twice daily at 5 μl per eye, day −3 to day 21) n=14

[2] = tested on: differentiated 661W cells; test: MTT assay, cannabinoid cytotoxicity on differentiated 661W cells under atmospheric pressure; type: cell-based, mouse; conditions: 72 hours
Experimental: (§1) Cell Culture and Differentiation: The mouse 661W (RGC-5) cell line was maintained in DMEM cell culture medium supplemented with 10% FBS and 1% Antibiotic-Antimycotic penicillin/streptomycin (growth medium) at 37° C. in a humidified atmosphere of 5% CO2. To induce neuronal differentiation in 661W cells, culture media was replaced by a growth medium containing 321 nM Staurosporine (STSR), and cells were incubated for 24 hrs at 37° C. in a humidified atmosphere of 5% CO2.
(§2) Compounds and Dosing Formulations: Selected cannabinoids: CBN, CBD, CBGA, CBDA, CBND and Δ^9-THC were procured from Cayman and Toronto Research Chemicals. Ethanol was used as the solvent to prepare 1 and 10 mM stock solutions. Treatment concentrations for CBN were prepared at 0.015, 0.05, 0.15, 0.5, 1.5, 5, 10 and 15 μM. Treatment concentrations at 0.5, 1.5 and 5 μM for other cannabinoids were prepared directly in the control medium (DMEM+5% FBS+1% Antibiotic-Antimycotic) by using appropriate stock solution.
(§3) Evaluation of Cytotoxicity and Neuroprotection: Evaluation of cannabinoid cytotoxicity on differentiated 661W cells under atmospheric pressure was carried out using MTT (3-(4,5-dimethylthiazol-2-yl)-2,5-diphenyltetrazolium bromide) assay. The cells were seeded onto 96-well plates (4,000 cells/well) in DMEM complete medium and allowed to reach ˜70% confluence for 24 hrs. After 24 hours, cell culture medium was replaced by growth medium containing 321 nM Staurosporine (STSR) and incubated for 1 day to induce differentiation into a neuronal phenotype.
(§4) MTT Assay: For the MTT assay, differentiated 661W cells were treated with cannabinoids at various concentrations and processed to determine cytotoxicity. Briefly, 5 mg/mL of methylthiazolyldiphenyl-tetrazolium bromide (Sigma-Aldrich) stock solution was prepared in PBS. Following treatment of cannabinoids for 72 hours, 661W cells were incubated with 20 μL of MTT stock solution in 200 μL DMEM for 2 hours at 37° C. Following subsequent washes with PBS, 200 μL of isopropanol was added to each well, and the resulting change in color from dissolving formazan salt was immediately quantified using spectrophotometer (BMG Labtech) at a wavelength of 570 nm. The data was normalized to Vehicle Control (VC) containing 0.15% ethanol and presented as % Cell Death. The VC (%) at atmospheric pressure was considered as 0% cell death. The results are illustrated in FIG. 1.

[3] = tested on: differentiated 661W cells; test: MTT assay, differentiated 661W cells in pressurized chamber at elevated hydrostatic pressure (approximately 20 to 40 mm Hg); type: cell-based, mouse; conditions: for neuroprotection (Cell Death % vs Normal Pressure Vehicle Control): elevated hydrostatic pressure approximately 20 to 40 mm Hg, 72 hours
Experimental: as §1, §2, §3, §4
Except where indicated all procedures were performed as described in Example 1. Differentiated 661W cells treated with cannabinoids at the respective concentrations were placed in a pressurized chamber where an elevated hydrostatic pressure of […] was maintained for 72 hrs. At the end of incubation, 661W cells were processed for MTT assay to determine cytotoxicity. The results are illustrated in FIGS. 2-5.

[4] = tested on: differentiated 661W cells; test: MTT assay, CBNA on differentiated 661W cells at elevated hydrostatic pressure (~10-25 mmHg); type: cell-based, mouse; conditions: elevated hydrostatic pressure approximately 10 to 25 mmHg; 0.015 to 15 μM; 72 hours
Experimental: as §4
In a separate study cannabinol-derivative CBNA at 0.015, 0.05, 0.15, 0.5, 1.5, 5, 10, and 15 μM concentrations was placed on differentiated 661W cells in a pressurized chamber where an elevated hydrostatic pressure of ˜10-25 mmHg was maintained for 72 hrs. At the end of incubation, 661W cells were processed for MTT assay to determine cytotoxicity. The results are illustrated in FIG. 6.

[5] = Brimonidine topical, twice daily at 5 μl per eye
[6] = Brimonidine topical, twice daily
[7] = CBN high dose, 50 μM, IVT day 0, 7 and 15
[8] = CBN low dose, 5 μM, IVT day 0, 7 and 15

## Brc1c(NC2=NCCN2)ccc2nccnc12 [Alphagan, Brimonidine]
[1]; Brimonidine (ALPHAGAN) topical twice daily, follow-up days 14 and 21
  pERG amplitudes vs baseline (statistical significance): did not differ significantly from the baseline
[1]; Brimonidine topical, twice daily at 5 μl per eye, day −3 to day 21, baseline
  pERG amplitude (mean ± SEM), BASELINE: 3.6 ± 0.4 μV
[1]; [5]
  pERG amplitude (mean ± SEM), DAY 7: 3.9 ± 0.6 μV
  pERG amplitude (mean ± SEM), DAY 14: 2.8 ± 0.4 μV
  pERG amplitude (mean ± SEM), DAY 21: 2.4 ± 0.3 μV
[1]; [6]
  pERG amplitude reduction compared to baseline value, Day 7: 9.6%
  pERG amplitude reduction compared to baseline value, Day 14: −22.8%
  pERG amplitude reduction compared to baseline value, Day 21: −31.6%

## CCCCCc1cc(O)c2c(c1)OC(C)(CCC=C(C)C)C=C2 (stereo not drawn) [CBC, cannabichromene]
[2]; concentration of about 1.5 μM
  toxicity when in contact with neurons: high toxicity
[2]; concentration of about 5 μM
  toxicity when in contact with neurons: high toxicity

## C=C(C)[C@@H]1CCC(C)=C[C@H]1c1c(O)cc(CCCCC)c(C(=O)O)c1O [CBDA, cannabidiolic acid]
[2]; concentration of about 5 μM
  toxicity when in contact with neurons: high toxicity
[3]; 0.5 μM, 1.5 μM and 5 μM
  neuroprotection (Cell Death % vs Normal Pressure Vehicle Control): absence of significant neuroprotection

## C=C(C)[C@@H]1CCC(C)=C[C@H]1c1c(O)cc(CCCCC)cc1O [CBD]
[2]; concentration of about 0.5 μM
  toxicity when in contact with neurons: high toxicity
[2]; concentration of about 1.5 μM
  toxicity when in contact with neurons: high toxicity
[2]; concentration of about 5 μM
  toxicity when in contact with neurons: high toxicity
[3]; 0.5 μM, 1.5 μM and 5 μM
  neuroprotection (Cell Death % vs Normal Pressure Vehicle Control): absence of significant neuroprotection

## CCCCCc1cc(O)c(C/C=C(\C)CCC=C(C)C)c(O)c1 [CBG, cannabigerol]
[2]; concentration of about 0.5 μM
  toxicity when in contact with neurons: high toxicity
[2]; concentration of about 1.5 μM
  toxicity when in contact with neurons: high toxicity
[2]; concentration of about 5 μM
  toxicity when in contact with neurons: high toxicity

## CCCCCc1cc(O)c(C/C=C(\C)CCC=C(C)C)c(O)c1C(=O)O [CBGA]
[2]; concentration of about 0.5 μM
  toxicity when in contact with neurons: high toxicity
[2]; concentration of about 1.5 μM
  toxicity when in contact with neurons: high toxicity
[2]; concentration of about 5 μM
  toxicity when in contact with neurons: high toxicity
[3]; 0.5 μM, 1.5 μM and 5 μM
  neuroprotection (Cell Death % vs Normal Pressure Vehicle Control): absence of significant neuroprotection

## CCCCCc1cc(O)c2c(c1)OC(C)(C)c1ccc(C)cc1-2 [CBN, 6,6,9-trimethyl-3-pentylbenzo[c]chromen-1-ol]
[1]; CBN high dose, 50 μM IVT, days 14 and 21
  pERG amplitudes vs baseline (statistical significance): statistically significant difference in disease induction; also recorded: Statistically significant impairment of RGC function
[1]; CBN high dose, 50 μM, IVT day 0, 7 and 15, baseline (before lasering)
  pERG amplitude (mean ± SEM), BASELINE: 3.83 μV and 3.8 ± 0.4 μV
[1]; [7]
  pERG amplitude (mean ± SEM), DAY 7: 3.6 ± 0.6 μV
  pERG amplitude (mean ± SEM), DAY 14: 1.87 μV and 1.9 ± 0.3 μV
  pERG amplitude (mean ± SEM), DAY 21: 2.19 μV and 2.2 ± 0.4 μV
[1]; CBN high dose, 50 μM, IVT
  pERG amplitude reduction compared to baseline value, Day 7: −6.4%
[1]; CBN high dose, 50 μM, IVT, **p<0.01 vs baseline
  pERG amplitude reduction compared to baseline value, Day 14: −51.2** %
[1]; CBN high dose, 50 μM, IVT, *p<0.05 vs baseline
  pERG amplitude reduction compared to baseline value, Day 21: −42.9* %
[1]; CBN low dose of 5 μM final concentration inside the eye
  neuroprotective effect on RGCs: confers neuroprotective effect on RGCs similar to ALPHAGAN
[1]; CBN low dose, 5 μM final concentration inside the eye, follow-up days 14 and 21
  pERG amplitudes vs baseline (statistical significance): did not differ significantly from the baseline
[1]; CBN low dose, 5 μM, IVT day 0, 7 and 15, baseline (before lasering)
  pERG amplitude (mean ± SEM), BASELINE: 3.3 ± 0.3 μV
[1]; [8]
  pERG amplitude (mean ± SEM), DAY 7: 3.2 ± 0.5 μV
  pERG amplitude (mean ± SEM), DAY 14: 2.3 ± 0.2 μV
  pERG amplitude (mean ± SEM), DAY 21: 2.2 ± 0.3 μV
[1]; CBN low dose, 5 μM, IVT
  pERG amplitude reduction compared to baseline value, Day 7: −3.7%
  pERG amplitude reduction compared to baseline value, Day 14: −31.2%
  pERG amplitude reduction compared to baseline value, Day 21: −31.6%
[3]; CBN 0.015 to 15 μM, One-Way ANOVA vs VC
  neuroprotection (Cell Death % vs Normal Pressure Vehicle Control): statistically significant neuroprotection; also recorded: significant neuroprotective effect
[3]; elevated pressure conditions in the pressurized chamber, same conditions
  neuroprotective effect compared with CBD and Δ^9-THC: surprisingly superior

## CCCCCc1cc2c(c(O)c1C(=O)O)-c1cc(C)ccc1C(C)(C)O2 [CBNA, cannabinolic acid]
[4]
  neuroprotection (Cell Death % vs Vehicle Control): statistically significant neuroprotection

## C=C(C)c1ccc(C)cc1-c1c(O)cc(CCCCC)cc1O [CBND]
[2]; concentration of about 1.5 μM
  toxicity when in contact with neurons: high toxicity
[2]; concentration of about 5 μM
  toxicity when in contact with neurons: high toxicity
[3]; 0.5 μM, 1.5 μM and 5 μM
  neuroprotection (Cell Death % vs Normal Pressure Vehicle Control): absence of significant neuroprotection

## CCCCCc1cc(O)c2c(c1)OC(C)(C)[C@@H]1CCC(C)=C[C@@H]21 [Δ^9-THC, Δ^9-tetrahydrocannabinol]
[2]; concentration of about 5 μM
  toxicity when in contact with neurons: high toxicity
[3]; 0.5 μM, 1.5 μM and 5 μM
  neuroprotection (Cell Death % vs Normal Pressure Vehicle Control): absence of significant neuroprotection
